This experiment concerns the target T1, HCV polymerase (Hepatitis C virus genotype 1b, UniProt P26663).
T1 construct: 2.5 pmoles (0.15 μg) HCV polymerase protein in a final volume of 75 μL
Put plainly: HCV polymerase primer/template-directed transcription assay (32P-GTP incorporation, filter binding). The experiment is classed as biochemical. The conditions noted are these: for inhibition at 50 µM: @ 50 uM compound, given where IC50 was impractical to calculate, read-out: percent inhibition; for pIC50: recombinant HCV polymerase, 30 minutes at 30° C., concentration giving 50% inhibition of polymerase-directed transcription, read-out: IC50. In short, it runs like this: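 IC50s come from triplicate cpm, refit with an enzyme-concentration (30 nM) correction when under 200 nM. Reactions ran 30 min at 30° C in Tris pH 7.2 with MgCl2, 1 μM GTP spiked with α-32P-GTP, biotin-dG12 primer and poly(rC)300 template, with 1% DMSO. Incorporated label was collected on DE filtermats and counted.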

Molecules are shown by their SMILES. pIC50: −log10 of the molar value.

T1 sequence (P26663 2420-3010): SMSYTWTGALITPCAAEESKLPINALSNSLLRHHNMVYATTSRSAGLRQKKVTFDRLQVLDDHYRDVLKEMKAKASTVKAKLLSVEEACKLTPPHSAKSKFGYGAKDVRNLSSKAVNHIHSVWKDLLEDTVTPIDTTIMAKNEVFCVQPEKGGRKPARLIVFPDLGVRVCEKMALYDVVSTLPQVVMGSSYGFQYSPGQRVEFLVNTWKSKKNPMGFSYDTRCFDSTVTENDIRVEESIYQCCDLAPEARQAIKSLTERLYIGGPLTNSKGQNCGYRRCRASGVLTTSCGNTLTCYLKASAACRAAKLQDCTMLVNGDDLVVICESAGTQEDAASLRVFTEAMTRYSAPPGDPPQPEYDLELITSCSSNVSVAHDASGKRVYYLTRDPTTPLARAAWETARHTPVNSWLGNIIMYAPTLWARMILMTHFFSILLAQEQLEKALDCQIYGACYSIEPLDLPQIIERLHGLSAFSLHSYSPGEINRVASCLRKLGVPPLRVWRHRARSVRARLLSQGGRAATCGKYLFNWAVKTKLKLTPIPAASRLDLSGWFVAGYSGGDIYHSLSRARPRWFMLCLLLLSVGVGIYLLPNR

Broadly, the inhibition is the drop in the measured response relative to a control, in per cent. As to `CCC1(CC)CC(O)=C(Sc2nc3nc(C)cc(C)n3n2)C(=O)O1` [C(18), 3-(5,7-Dimethyl-[1,2,4]triazolo[1,5-a]pyrimidin-2-ylsulfanyl)-6,6-diethyl-4-hydroxy-5,6-dihydro-pyran-2-one], the inhibition at 50 µM was 2%.

In general, pIC50 refers to the negative decadic logarithm of the IC50, by convention in mol/L. As to `COc1ccc(CCC2(C3CCCC3)CC(O)=C(Cc3ccc(-n4c(C)ccc4C)cc3)C(=O)O2)cc1Cl` (stereo not shown) [B(06), 6-[2-(3-Chloro-4-methoxy-phenyl)-ethyl]-6-cyclopentyl-3-[4-(2,5-dimethyl-pyrrol-1-yl)-benzyl]-4-hydroxy-5,6-dihydro-pyran-2-one], the pIC50 was 6.82.

As for `Cc1cc(C)n2nc(CC3=C(O)CC(COc4ccc(C(C)(C)C#N)c(F)c4)(C4CCCC4)OC3=O)nc2n1` (stereo not shown) [C(112), 2-{4-[2-Cyclopentyl-5-(5,7-dimethyl-[1,2,4]triazolo[1,5-a]pyrimidin-2-ylmethyl)-4-hydroxy-6-oxo-3,6-dihydro-2H-pyran-2-ylmethoxy]-2-fluoro-phenyl}-2-methyl-propionitrile], the negative-log IC50 (pIC50) is 7.19.

Take `CCOc1ccc(CCC2(C3CCCC3)CC(O)=C(Cc3nc4nc(C)cc(C)n4n3)C(=O)O2)cc1Cl` (stereo not shown) [B(20), 6-[2-(3-Chloro-4-ethoxy-phenyl)-ethyl]-6-cyclopentyl-3-(5,7-dimethyl-[1,2,4]triazolo[1,5]pyrimidin-2-ylmethyl)-4-hydroxy-5,6-dihydro-pyran-2-one]: the pIC50 is 8.40.

As for `COc1ccc(CCC2(C3CCCC3)CC(O)=C(Sc3nncn3C)C(=O)O2)cc1Cl` (stereo not shown) [C(102), 6-[2-(3-chloro-4-methoxyphenyl)ethyl]-6-cyclopentyl-4-hydroxy-3-[(4-methyl-4H-1,2,4-triazol-3-yl)thio]-5,6-dihydro-2H-pyran-2-one], the pIC50 is 7.42.

Take `O=C1CC(=O)OC(CCC2=CCCCC2)(C2CCCC2)C1` (stereo not shown) [A(13), 6-(2-Cyclohex-1-enyl-ethyl)-6-cyclopentyl-dihydro-pyran-2,4-dione]: the pIC50 was 4.20.

For the compound `CCc1cc(CCC2(C3CCCC3)CC(=O)CC(=O)O2)ccc1N(C)S(C)(=O)=O` (stereo not shown) [A(87)], the pIC50 was 6.05.

Consider `CC(C)(CNC(=O)c1cc[nH]n1)c1cccc(CCC2(C3CCCC3)CC(=O)CC(=O)O2)c1` (stereo not shown) [A(71), 1H-Pyrazole-3-carboxylic acid (2-{3-[2-(2-cyclopentyl-4,6-dioxo-tetrahydro-pyran-2-yl)-ethyl]-phenyl}-2-methyl-propyl)-amide], for which the pIC50 is 5.72.

Consider `COc1ccc(CCC2(C3CCCC3)CC(O)=C(C(=O)Cc3ccccn3)C(=O)O2)cc1Cl` (stereo not shown) [B(87), 6-[2-(3-Chloro-4-methoxy-phenyl)-ethyl]-6-cyclopentyl-4-hydroxy-3-(2-pyridin-2-yl-acetyl)-5,6-dihydro-pyran-2-one], for which the pIC50 was 5.74.

As for `CCc1cc(CCC2(C3CCCC3)CC(O)=C(Cc3nc4nc(C)cc(C)n4n3)C(=O)O2)c2c(c1O)CCO2` (stereo not shown) [A(180), 6-Cyclopentyl-3-(5,7-dimethyl-[1,2,4]triazolo[1,5-a]pyrimidin-2-ylmethyl)-6-[2-(5-ethyl-4-hydroxy-2,3-dihydro-benzofuran-7-yl)-ethyl]-4-hydroxy-5,6-dihydro-pyran-2-one], the pIC50 was 8.00.

`COCc1cc(CCC2(C3CCCC3)CC(=O)CC(=O)O2)ccc1O` (stereo not shown) [A(194), 6-Cyclopentyl-6-[2-(4-hydroxy-3-methoxymethyl-phenyl)-ethyl]-dihydro-pyran-2,4-dione]: the negative logarithm of the IC50 (pIC50) is 5.16.

As to `COc1ccc(CCC2(C3CCCC3)CC(=O)CC(=O)O2)c(C(C)=O)c1` (stereo not shown) [A(61), 6-[2-(2-acetyl-4-methoxyphenyl)ethyl]-6-cyclopentyldihydro-2H-pyran-2,4(3H)-dione], the inhibition at 50 µM is 40%.

Regarding `CC(C)(O)c1ccc(CCC2(C3CCCC3)CC(=O)CC(=O)O2)cc1F` (stereo not shown) [A(215), 6-cyclopentyl-6-{2-[3-fluoro-4-(1-hydroxy-1-methylethyl)phenyl]ethyl}dihydro-2H-pyran-2,4(3H)-dione], the pIC50 was 5.31.

Values taken from US7473790B2 (Pfizer Inc., priority 2003, dated 2009).
